This is an account of results in patent US20190092756A1, “CRYSTALLINE FORM A OF 2-[(2R)-2-METHYL-2-PYRROLIDYL]-1H-BENZIMIDAZOLE-7-CARBOXAMIDE DIHYDROCHLORIDE AND PREPARATION METHOD THEREOF” (Crystal Pharmatech Co., Ltd., priority 2016, published 2019).

Values after ≈ are worked out from the molar mass of the structure shown. Where two headings read alike, the source gives them in different places.

A word on the solubility: it is the concentration that dissolves in the medium under given conditions.

The conditions of data set [1]: cited from earlier work; for Solubility (in words): from CN101821270A and CN101821269B.
Data set [2] is described as follows: Particle size distribution (PSD) study, laser particle size analyzer. The format is physicochemical. As to conditions: wet method, dispersion medium Isopar G. An excerpt:
The result of particle size distribution (PSD) in the present disclosure was acquired by laser particle size analyzer with S3500 model from Microtrac company. The Microtrac S3500 is equipped with a SDC (Sample Delivery Controller) sampling system. This experiment uses a wet method and the dispersion medium is Isopar G. The method and parameters of the laser particle size analyzer are as follows:
The particle size distributions (PSD) of crystalline form A and crystalline form 1 and form 2 in CN101821269B were studied.

A short description of data set [3]: Mechanical stability study (grinding, XRPD before and after). Format: physicochemical. As to conditions: ground for 5 minutes. The procedure: Crystalline form A of present disclosure was ground, and analyzed by XRPD before and after being ground for 5 minutes.
The nature of data set [4]: Physical stability study (storage, XRPD before and after). As to conditions: 1 month. Format: physicochemical. The protocol: Crystalline form A was stored at 25° C./60% RH and 40° C./75% RH for one month.
Data set [5] can be described thus: Solubility study in SGF, FeSSIF, FaSSIF and water. The format is physicochemical. The procedure: Crystalline form A samples were dissolved into 1 mL of simulated gastric fluid (SGF), fed state simulated intestinal fluid (FeSSIF, pH 5.0), fasted state simulated intestinal fluid (FaSSIF, pH 6.5) and water to test the corresponding solubility.

As to `C[C@]1(c2nc3c(C(N)=O)cccc3[nH]2)CCCN1` [crystalline form B, 2-[(2R)-2-methyl-2-pyrrolidinyl]-1H-benzimidazole-7-carboxamide], in data set [1] (after 24 hours in SGF, from CN105130961A), the solubility was 6000 µg/mL (≈ 24.6 mM).

`C[C@]1(c2nc3cccc(C(N)=O)c3[nH]2)CCCN1` [Form 2, 2-[(2R)-2-methyl-2-pyrrolidinyl]-1H-benzimidazole-7-carboxamide]: in data set [2], the D10 is recorded as 8.99 μm, the D50 worked out at 59.08 μm, the D90 is 231.9 μm and the “MV (average based on volume)” value was determined as 94.50 μm. The “Solubility (in words)” value in data set [1] (listed as crystalline form 2) is “poor solubility”.

Regarding `C[C@]1(c2nc3cccc(C(N)=O)c3[nH]2)CCCN1` [Form 1, 2-[(2R)-2-methyl-2-pyrrolidinyl]-1H-benzimidazole-7-carboxamide], in data set [2], the D10 is listed as 11.54 μm, the D50 worked out at 18.89 μm, the D90 worked out at 31.97 μm and the “MV (average based on volume)” value came out at 20.89 μm. For the same compound, in data set [1] (listed as Crystalline form 1), the “Solubility (in words)” value is listed as “better solubility”.

Take `C[C@]1(c2nc3cccc(C(N)=O)c3[nH]2)CCCN1` [Form A, 2-[(2R)-2-methyl-2-pyrrolidinyl]-1H-benzimidazole-7-carboxamide]: the D10 in data set [2] came out at 41.6 μm. In data set [2], this compound displayed a D50 of 278.6 μm. Further, in data set [2], the D90 is 1118 μm. In data set [2], the “MV (average based on volume)” value came out at 407.2 μm. In addition, in data set [3], the “XRPD pattern change before and after grinding” value was “no significant change”. Besides, the Crystalline form change entry in data set [4] (25° C./60% RH) and in data set [4] (40° C./75% RH) was “No change” throughout. The “Observation (dissolution)” value is “Completely” in data set [5] (11.2 mg in 1 mL water); “Completely” in data set [5] (11.3 mg in 1 mL FeSSIF, pH 5.0); “Completely” in data set [5] (11.5 mg in 1 mL FaSSIF, pH 6.5); “Completely” in data set [5] (12.4 mg in 1 mL SGF). The “Weight of sample dissolved” value in data set [5] (in 1 mL FaSSIF, pH 6.5) is given as 11.5 mg; in data set [5] (in 1 mL FeSSIF, pH 5.0), 11.3 mg; in data set [5] (in 1 mL SGF) it was 12.4 mg; in data set [5] (in 1 mL water), 11.2 mg. Also, the “Solubility relative to crystalline forms disclosed in the prior art” value in data set [5] (in SGF, FaSSIF, FeSSIF and water) was “at least 2 times”. Moreover, in data set [5] (thermodynamic from solid, in SGF, FaSSIF, FeSSIF and water), the solubility was over 10000 µg/mL.
